Here are results for nine compounds from US10448639B2, “Fungicidal pyrazoles” (FMC CORPORATION, priority 2009, dated 2019).

For one test, the system named is Alternaria solani. The test can be described thus: Test C: tomato early blight, preventive spray on tomato seedlings, visual disease rating. Conditions: tomato early blight; 100 = 100% disease control, 0 = no control relative to controls.
As to `Cc1nn(C)c(Nc2cc(F)ccc2F)c1-c1ccc(F)cc1F` [compound 226], the “Test C rating (% disease control)” value worked out at 0%.
Same read-out and setting: next, `COc1cc(F)c(-c2c(C)nn(C)c2Oc2cccc(C)c2)c(F)c1` [compound 220]: 97%; `Cc1nn(C)c(Nc2ccc(F)cc2)c1-c1ccccc1F` [compound 184]: 0%; `Cc1nn(C)c(Oc2ccc(Cl)c(C#N)c2)c1-c1c(F)cc(F)cc1F` [compound 224]: 51%.
Same read-out and setting: to `Cc1nn(C)c(Oc2c(F)cc(C#N)cc2F)c1-c1cccc(Cl)c1Cl` [compound 273] belongs 0%.
On the same count and under the same terms, to `COc1cc(F)c(Nc2c(-c3ccccc3F)c(C)nn2C)c(F)c1` [compound 183] belongs 100%; to `Cc1nn(C)c(Nc2ccc(Cl)cc2Cl)c1-c1c(F)cccc1F` [compound 179], 99%; to `Cc1nn(C)c(Nc2ncc(F)cc2F)c1-c1c(F)cccc1Cl` [compound 279], 99%.
For `Cc1nn(C)c(Nc2c(F)cc(F)cc2F)c1-c1ccccc1C(F)(F)F` [compound 239], the “Test C rating (% disease control)” value was 95%.

In a further test the test system is Erysiphe graminis f sp. tritici. The test can be described thus: Test J: wheat powdery mildew, preventive spray on wheat seedlings, visual disease rating. Conditions: wheat powdery mildew; 100 = 100% disease control, 0 = no control relative to controls.
Regarding `Cc1nn(C)c(Nc2cc(F)ccc2F)c1-c1ccc(F)cc1F` [compound 226], the “Test J rating (% disease control)” value came to 100%.
On the same count and under the same terms, next, `COc1cc(F)c(-c2c(C)nn(C)c2Oc2cccc(C)c2)c(F)c1` [compound 220]: 100%.
Same read-out and setting: to `Cc1nn(C)c(Nc2ccc(F)cc2)c1-c1ccccc1F` [compound 184] belongs 98%; to `Cc1nn(C)c(Oc2ccc(Cl)c(C#N)c2)c1-c1c(F)cc(F)cc1F` [compound 224], 100%; to `Cc1nn(C)c(Oc2c(F)cc(C#N)cc2F)c1-c1cccc(Cl)c1Cl` [compound 273], 43%.
The same measure, in the same setting: next, `COc1cc(F)c(Nc2c(-c3ccccc3F)c(C)nn2C)c(F)c1` [compound 183]: 99%; `Cc1nn(C)c(Nc2ccc(Cl)cc2Cl)c1-c1c(F)cccc1F` [compound 179]: 100%; `Cc1nn(C)c(Nc2ncc(F)cc2F)c1-c1c(F)cccc1Cl` [compound 279]: 100%.
With `Cc1nn(C)c(Nc2c(F)cc(F)cc2F)c1-c1ccccc1C(F)(F)F` [compound 239], the “Test J rating (% disease control)” value is 100%.

In a further test the test system is Botrytis cinerea. The test can be described thus: Test B: tomato Botrytis, preventive spray on tomato seedlings, visual disease rating. The note with it: tomato Botrytis; 100 = 100% disease control, 0 = no control relative to controls.
On to `Cc1nn(C)c(Nc2cc(F)ccc2F)c1-c1ccc(F)cc1F` [compound 226], for which the “Test B rating (% disease control)” value is 99%.
Same read-out and setting: to `COc1cc(F)c(-c2c(C)nn(C)c2Oc2cccc(C)c2)c(F)c1` [compound 220] belongs 98%; to `Cc1nn(C)c(Nc2ccc(F)cc2)c1-c1ccccc1F` [compound 184], 97%; to `Cc1nn(C)c(Oc2ccc(Cl)c(C#N)c2)c1-c1c(F)cc(F)cc1F` [compound 224], 99%.
Still for that read-out and setting: to `Cc1nn(C)c(Oc2c(F)cc(C#N)cc2F)c1-c1cccc(Cl)c1Cl` [compound 273] belongs 0%.
Same read-out and setting: next, `COc1cc(F)c(Nc2c(-c3ccccc3F)c(C)nn2C)c(F)c1` [compound 183]: 97%.
As to `Cc1nn(C)c(Nc2ccc(Cl)cc2Cl)c1-c1c(F)cccc1F` [compound 179], the “Test B rating (% disease control)” value is recorded as 100%.
On the same count and under the same terms, to `Cc1nn(C)c(Nc2ncc(F)cc2F)c1-c1c(F)cccc1Cl` [compound 279] belongs 100%; to `Cc1nn(C)c(Nc2c(F)cc(F)cc2F)c1-c1ccccc1C(F)(F)F` [compound 239], 99%.

The next test deals with Septoria tritici. The test can be described thus: Test G: wheat leaf blotch, preventive spray on wheat seedlings, visual disease rating. Conditions: wheat leaf blotch; 100 = 100% disease control, 0 = no control relative to controls.
On to `Cc1nn(C)c(Nc2cc(F)ccc2F)c1-c1ccc(F)cc1F` [compound 226], for which the “Test G rating (% disease control)” value is given as 96%.
The same measure, in the same setting: to `COc1cc(F)c(-c2c(C)nn(C)c2Oc2cccc(C)c2)c(F)c1` [compound 220] belongs 98%; to `Cc1nn(C)c(Nc2ccc(F)cc2)c1-c1ccccc1F` [compound 184], 99%; to `Cc1nn(C)c(Oc2ccc(Cl)c(C#N)c2)c1-c1c(F)cc(F)cc1F` [compound 224], 100%.
Same read-out and setting: to `Cc1nn(C)c(Oc2c(F)cc(C#N)cc2F)c1-c1cccc(Cl)c1Cl` [compound 273] belongs 72%; to `COc1cc(F)c(Nc2c(-c3ccccc3F)c(C)nn2C)c(F)c1` [compound 183], 99%.
Same read-out and setting: to `Cc1nn(C)c(Nc2ccc(Cl)cc2Cl)c1-c1c(F)cccc1F` [compound 179] belongs 95%; to `Cc1nn(C)c(Nc2ncc(F)cc2F)c1-c1c(F)cccc1Cl` [compound 279], 100%.
Take `Cc1nn(C)c(Nc2c(F)cc(F)cc2F)c1-c1ccccc1C(F)(F)F` [compound 239]: the “Test G rating (% disease control)” value is listed as 67%.

For a further test, the system named is Puccinia recondita f. sp. tritici. The test can be described thus: Test I: wheat leaf rust, preventive spray on wheat seedlings, visual disease rating. The note with it: wheat leaf rust, preventive; 100 = 100% disease control, 0 = no control relative to controls.
On to `Cc1nn(C)c(Nc2cc(F)ccc2F)c1-c1ccc(F)cc1F` [compound 226], for which the “Test I rating (% disease control)” value is 91%.
On the same count and under the same terms, next, `COc1cc(F)c(-c2c(C)nn(C)c2Oc2cccc(C)c2)c(F)c1` [compound 220]: 99%; `Cc1nn(C)c(Nc2ccc(F)cc2)c1-c1ccccc1F` [compound 184]: 82%; `Cc1nn(C)c(Oc2ccc(Cl)c(C#N)c2)c1-c1c(F)cc(F)cc1F` [compound 224]: 91%.
Same read-out and setting: next, `Cc1nn(C)c(Oc2c(F)cc(C#N)cc2F)c1-c1cccc(Cl)c1Cl` [compound 273]: 27%; `COc1cc(F)c(Nc2c(-c3ccccc3F)c(C)nn2C)c(F)c1` [compound 183]: 94%.
Same read-out and setting: next, `Cc1nn(C)c(Nc2ccc(Cl)cc2Cl)c1-c1c(F)cccc1F` [compound 179]: 93%.
Take `Cc1nn(C)c(Nc2ncc(F)cc2F)c1-c1c(F)cccc1Cl` [compound 279]: the “Test I rating (% disease control)” value is 98%.
Still for that read-out and setting: to `Cc1nn(C)c(Nc2c(F)cc(F)cc2F)c1-c1ccccc1C(F)(F)F` [compound 239] belongs 68%.

The test system is the same in another test. The test can be described thus: Test H: wheat leaf rust, curative spray on inoculated wheat seedlings, visual disease rating. The note with it: wheat leaf rust, curative; 100 = 100% disease control, 0 = no control relative to controls.
Excerpt: General protocol for preparing test suspensions for Tests A-J: the test compounds were first dissolved in acetone in an amount equal to 3% of the final volume and then suspended at the desired concentration (in ppm) in acetone and purified water (50/50 mix by volume) containing 250 ppm of the surfactant Trem® 014 (polyhydric alcohol esters). The resulting test suspensions were then used in Tests A-J. Spraying a 200 ppm test suspension to the point of run-off on the test plants was the equivalent of a rate of 500 g/ha. Unless otherwise indicated, the rating values indicate a 200 ppm test suspension was used. (An asterisk “*” next to the rating value indicates a 40 ppm test suspension was used.)
Wheat seedlings were inoculated with a spore suspension of Puccinia recondita f. sp. tritici (the causal agent of wheat leaf rust) and incubated in a saturated atmosphere at 20° C. for 24 h, and then moved to a growth chamber at 20° C. for 2 days. At the end of this time the test suspension was sprayed to the point of run-off, and then the seedlings were moved to a growth chamber at 20° C. for 6 days after which time visual disease ratings were made.
`Cc1nn(C)c(Nc2cc(F)ccc2F)c1-c1ccc(F)cc1F` [compound 226]: the “Test H rating (% disease control)” value is listed as 28%.
Same read-out and setting: to `COc1cc(F)c(-c2c(C)nn(C)c2Oc2cccc(C)c2)c(F)c1` [compound 220] belongs 40%; to `Cc1nn(C)c(Nc2ccc(F)cc2)c1-c1ccccc1F` [compound 184], 0%.
Still for that read-out and setting: to `Cc1nn(C)c(Oc2ccc(Cl)c(C#N)c2)c1-c1c(F)cc(F)cc1F` [compound 224] belongs 17%.
Still for that read-out and setting: to `Cc1nn(C)c(Oc2c(F)cc(C#N)cc2F)c1-c1cccc(Cl)c1Cl` [compound 273] belongs 0%; to `COc1cc(F)c(Nc2c(-c3ccccc3F)c(C)nn2C)c(F)c1` [compound 183], 27%.
Consider `Cc1nn(C)c(Nc2ccc(Cl)cc2Cl)c1-c1c(F)cccc1F` [compound 179], for which the “Test H rating (% disease control)” value came to 0%.
The same measure, in the same setting: to `Cc1nn(C)c(Nc2ncc(F)cc2F)c1-c1c(F)cccc1Cl` [compound 279] belongs 8%; to `Cc1nn(C)c(Nc2c(F)cc(F)cc2F)c1-c1ccccc1C(F)(F)F` [compound 239], 0%.

The subject of a further test is Septoria nodorum. The test can be described thus: Test F: Septoria glume blotch, preventive spray on wheat seedlings, visual disease rating. The note with it: Septoria glume blotch; 100 = 100% disease control, 0 = no control relative to controls.
`Cc1nn(C)c(Nc2cc(F)ccc2F)c1-c1ccc(F)cc1F` [compound 226]: the “Test F rating (% disease control)” value is listed as 0%.
The same measure, in the same setting: to `COc1cc(F)c(-c2c(C)nn(C)c2Oc2cccc(C)c2)c(F)c1` [compound 220] belongs 40%; to `Cc1nn(C)c(Nc2ccc(F)cc2)c1-c1ccccc1F` [compound 184], 0%; to `Cc1nn(C)c(Oc2ccc(Cl)c(C#N)c2)c1-c1c(F)cc(F)cc1F` [compound 224], 0%.
Same read-out and setting: to `Cc1nn(C)c(Oc2c(F)cc(C#N)cc2F)c1-c1cccc(Cl)c1Cl` [compound 273] belongs 0%.
`COc1cc(F)c(Nc2c(-c3ccccc3F)c(C)nn2C)c(F)c1` [compound 183]: the “Test F rating (% disease control)” value is listed as 67%.
On the same count and under the same terms, to `Cc1nn(C)c(Nc2ccc(Cl)cc2Cl)c1-c1c(F)cccc1F` [compound 179] belongs 73%; to `Cc1nn(C)c(Nc2ncc(F)cc2F)c1-c1c(F)cccc1Cl` [compound 279], 0%; to `Cc1nn(C)c(Nc2c(F)cc(F)cc2F)c1-c1ccccc1C(F)(F)F` [compound 239], 0%.
